Measured values as given in patent US5008267A, “Pyrimidinedione compounds, method of producing the same and antiarrythmic agents containing the same” (Mitsui Toatsu Chemicals, Incorporated, priority 1988, dated 1991).
Where a name gives a salt, the structure may show the parent alone. Read-outs that look alike come from different tables or passages of the source.

Legend:
[1] = system: Purkinje fiber of the right ventricular free wall (myocardial action potential); experiment: Influence on myocardial action potential duration time (APD75), isolated right ventricular free wall, microelectrode in Purkinje fiber; type: cell-based, dog; conditions: Canis lupus familiaris, 20 min; for activation at 0.3 µg/mL: 0.3 μg/ml, (B-A)/A×100
[2] = system: ventricular muscle refractory period; experiment: Influence on ventricular muscle refractory period (ERP); type: in vivo, mongrel dog; conditions: Canis lupus familiaris, iv, i.v., (W-Y)/Y×100, read-out: ERP (%; extensibility of refractory period)
Protocol: (2) Influence on ventricular muscle refractory period Refractory periods were measured in the following manner before and after each of the compounds and d-sotalol shown in Table 2 was separately administered to a vein or a duodenum, and ERP (%; extensibility of refractory period) was calculated from the measured values: ERP (%)=(W-Y)/Y×100 W: Refractory period after administration Y: Refractory period before administration To a mongrel adult dog, 30 mg/kg of pentobarbital was administered intravenously, and after being anesthetized, a pair of silver-silver chloride electrodes separated by 3 mm was sewn on an opened right ventricule, and electrical stimulation was given at an interval of 400 msec at a duration time of 4 msec under a current twice as much as the threshold. Afterward, a small amount of alcohol was injected into a sinus artery in order to extinguish a pacemaker activity, and the ventricular refractory period (ERP) was measured under ventricule pacing. That is, each 1 train comprised 10 stimulations having intervals of 400 msec, and an interval between the trains was usually 400 msec. However, this interval was shortened 10 msec by 10 msec at the time of the refractory period measurement, and an interval between the trains at the time when reaction to the first stimulation of the train disappeared was regarded as the refractory period. In this case, the electrical stimulation was fed in accordance with a program by a heart stimulation device (Diamedical Co., Ltd.; DHM-226-3).

[3] = 1.0 μg/ml, 20 minutes' incubation, (B-A)/A×100, read-out: APD75 (%)
[4] = 3.0 μg/ml, 20 minutes' incubation, (B-A)/A×100, read-out: APD75 (%)
[5] = 10.0 μg/ml, 20 minutes' incubation, (B-A)/A×100, read-out: APD75 (%)

Cn1c(NCCN2CCN(c3ccc([N+](=O)[O-])cc3)CC2)cc(=O)n(C)c1=O [Compound 64, 1,3-dimethyl-6-{2-[4-(4-nitrophenyl)piperazin-1-yl]ethylamino}-2,4(1H,3H)-pyrimidinedione oxalate]
activation at 0.3 µg/mL ([1]; 20 minutes' incubation): 8% | activation at 1 µg/mL [1, 3]: 23% | activation at 3 µg/mL [1, 4]: 32% | change in vivo at 0.1 mg/kg [2]: 21.4% | change in vivo at 0.3 mg/kg [2]: 28.6% | change in vivo at 1 mg/kg [2]: 28.6%

Cn1c(N2CCN(CCCOc3ccccc3[N+](=O)[O-])CC2)cc(=O)n(C)c1=O [Compound 55, 1,3-dimethyl-6-{4-[3-(2-nitrophenoxy)propyl]piperazin-1-yl}-2.4(1H,3H)-pyrimidinedione hydrochloride]
activation at 3 µg/mL [1, 4]: 18% | activation at 10 µg/mL [1, 5]: 39% | change in vivo at 0.1 mg/kg [2]: 0% | change in vivo at 0.3 mg/kg [2]: 0% | change in vivo at 1 mg/kg [2]: 6.8% | change in vivo at 3 mg/kg [2]: 13.6%

Cn1c(NCCNC2CCN(c3ccc([N+](=O)[O-])cc3)CC2)cc(=O)n(C)c1=O [Compound 61, 1,3-dimethyl-6-{2-[[1-(4-nitrophenyl)piperidin-4-yl]amino]ethylamino}-2,4(1H,3H)-pyrimidinedione oxalate]
change in vivo at 0.1 mg/kg [2]: 8.3% | change in vivo at 0.3 mg/kg [2]: 8.3% | change in vivo at 1 mg/kg [2]: 8.3%

CC(=O)c1cc([N+](=O)[O-])ccc1OCCCN1CCN(c2cc(=O)n(C)c(=O)n2C)CC1 [Compound 76, 1,3-dimethyl-6-{4-[3-(2-acetyl-4-nitrophenoxy)propyl]piperazin-1-yl}-2,4(1H,3H)-pyrimidinedione oxalate]
activation at 1 µg/mL [1, 3]: 16% | activation at 3 µg/mL [1, 4]: 21% | change in vivo at 0.1 mg/kg [2]: 2.4% | change in vivo at 0.3 mg/kg [2]: 4.3% | change in vivo at 1 mg/kg [2]: 12.6% | change in vivo at 3 mg/kg [2]: 16.5%

Cn1c(N2CCN(CC(=O)Nc3ccc([N+](=O)[O-])cc3)CC2)cc(=O)n(C)c1=O [Compound 47, 1,3-dimethyl-6-{4-[N-(4-nitrophenyl)carbamoylmethyl]piperazin-1-yl}-2,4(1H,3H)pyrimidinedione oxalate]
activation at 1 µg/mL [1, 3]: 5% | activation at 3 µg/mL [1, 4]: 11% | activation at 10 µg/mL [1, 5]: 16%

Cn1c(N2CCN(CCc3ccc([N+](=O)[O-])cc3)CC2)cc(=O)n(C)c1=O [Compound 14, 1,3-dimethyl-6-{4-[2-(4-nitrophenyl)ethyl]piperazin-1-yl}-2,4(1H,3H)-pyrimidinedione hydrochloride]
activation at 0.3 µg/mL ([1]; 20 minutes' incubation): 18% | activation at 1 µg/mL [1, 3]: 43% | change in vivo at 0.1 mg/kg [2]: 14% | change in vivo at 0.3 mg/kg [2]: 33.5%

Cn1c(N2CCN(CCCOc3ccc([N+](=O)[O-])cc3)CC2)cc(=O)n(C)c1=O [Compound 35, 1,3-dimethyl-6-{4-[3-(4-nitrophenoxy)propyl]piperazin-1-yl}-2,4(1H,3H)-pyrimidinedione hydrochloride]
activation at 1 µg/mL [1, 3]: 17% | activation at 3 µg/mL [1, 4]: 22% | activation at 10 µg/mL [1, 5]: 30% | change in vivo at 0.1 mg/kg [2]: 6% | change in vivo at 0.3 mg/kg [2]: 12% | change in vivo at 1 mg/kg [2]: 15.8% | change in vivo at 3 mg/kg [2]: 25.3%

Cn1c(NCCNCc2ccc([N+](=O)[O-])cc2)cc(=O)n(C)c1=O [Compound 15, 1,3-dimethyl-6-[2-(4-nitrobenzylamino)ethylamino]-2,4(1H,3H)-pyrimidinedione oxalate]
activation at 3 µg/mL [1, 4]: 6% | activation at 10 µg/mL [1, 5]: 16% | change in vivo at 0.1 mg/kg [2]: 6.3% | change in vivo at 0.3 mg/kg [2]: 12.5% | change in vivo at 1 mg/kg [2]: 12.5% | change in vivo at 3 mg/kg [2]: 18.8%

COc1cc([N+](=O)[O-])ccc1OCCCN1CCN(c2cc(=O)n(C)c(=O)n2C)CC1 [Compound 164, 1,3-dimethyl-6-{4-[3-(2-methoxy-4-nitrophenyloxy)propyl]piperazin-1-yl}-2,4(1H,3H)-pyrimidinedione hydrochloride]
activation at 3 µg/mL [1, 4]: 8% | activation at 10 µg/mL [1, 5]: 12% | change in vivo at 0.1 mg/kg [2]: 0% | change in vivo at 0.3 mg/kg [2]: 7.7% | change in vivo at 1 mg/kg [2]: 15.4% | change in vivo at 3 mg/kg [2]: 15.4%

Cn1c(N2CCN(CCc3ccc(C(=O)c4ccccc4)cc3[N+](=O)[O-])CC2)cc(=O)n(C)c1=O [Compound 137, 1,3-dimethyl-6-{4-[2-(4-benzoyl-2-nitrophenyl)ethyl]piperazin-1-yl}-2,4(1H,3H)-pyrimidinedione oxalate]
activation at 1 µg/mL [1, 3]: 32% | activation at 3 µg/mL [1, 4]: 51% | change in vivo at 0.1 mg/kg [2]: 6.3% | change in vivo at 0.3 mg/kg [2]: 6.3% | change in vivo at 1 mg/kg [2]: 12.5% | change in vivo at 3 mg/kg [2]: 18.8%

Cn1c(N2CCN(CCCOc3ccc(Cl)cc3[N+](=O)[O-])CC2)cc(=O)n(C)c1=O [Compound 140, 1,3-dimethyl-6-{4-[3-(4-chloro-2-nitrophenoxy)propyl]piperazin-1-yl}-2,4(1H,3H)-pyrimidinedione hydrochloride]
activation at 1 µg/mL [1, 3]: 6% | activation at 3 µg/mL [1, 4]: 17% | activation at 10 µg/mL [1, 5]: 29% | change in vivo at 0.1 mg/kg [2]: 0% | change in vivo at 0.3 mg/kg [2]: 3.55% | change in vivo at 1 mg/kg [2]: 3.55%

Cn1c(NCCN(CCO)CCCc2ccc([N+](=O)[O-])cc2)c([N+](=O)[O-])c(=O)n(C)c1=O [Compound 180, 1,3-dimethyl-6-{2-[N-(2-hydroxethyl)-3-(4-nitrophenyl)propylamino]ethylamino}-5-nitro-2,4(1H,3H)-pyrimidinedione hydrochloride]
activation at 1 µg/mL ([1]; read-out: APD75 (%)): 11% | activation at 3 µg/mL ([1]; read-out: APD75 (%)): 20% | activation at 10 µg/mL ([1]; read-out: APD75 (%)): 26%

Cn1c(N2CCN(c3ccc([N+](=O)[O-])cc3)CC2)cc(=O)n(C)c1=O [Compound 1, 1,3-dimethyl-6-[4-(4-nitrophenyl)piperazin-1-yl]-2,4(1H,3H)-pyrimidinedione]
change in vivo at 0.1 mg/kg [2]: 3.6% | change in vivo at 0.3 mg/kg [2]: 3.6% | change in vivo at 1 mg/kg [2]: 10.3%

CC(=O)c1cc([N+](=O)[O-])ccc1NCCCN1CCN(c2cc(=O)n(C)c(=O)n2C)CC1 [Compound 120, 1,3-dimethyl-6-{4-[3-(2-acetyl-4-nitroanilino)propyl]piperazin-1-yl}-2,4(1H,3H)-pyrimidinedione oxalate]
activation at 1 µg/mL [1, 3]: 16% | activation at 3 µg/mL [1, 4]: 27% | activation at 10 µg/mL [1, 5]: 29%

CC(=O)c1ccc(OCCN2CCN(c3cc(=O)n(C)c(=O)n3C)CC2)c([N+](=O)[O-])c1 [Compound 102]
activation at 1 µg/mL [1, 3]: 7% | activation at 3 µg/mL [1, 4]: 20%

Cn1c(NCCN(CCCc2ccc([N+](=O)[O-])cc2)CCOC(=O)c2ccccc2)cc(=O)n(C)c1=O [Compound 168, 1,3-dimethyl-6-{2-[N-(2-benzoyloxyethyl)-3-(4-nitrophenyl)propylamino]ethylamino}-2,4(1H,3H)-pyrimidinedione oxalate]
activation at 1 µg/mL [1, 3]: 48% | activation at 3 µg/mL [1, 4]: 55% | activation at 10 µg/mL [1, 5]: 68% | change in vivo at 0.1 mg/kg [2]: 6% | change in vivo at 0.3 mg/kg [2]: 12% | change in vivo at 1 mg/kg [2]: 18% | change in vivo at 3 mg/kg [2]: 18%

Cn1c(N2CCN(CCCOc3ccc([N+](=O)[O-])cc3O)CC2)cc(=O)n(C)c1=O [Compound 162, 1,3-dimethyl-6-{4-[3-(2-hydroxy-4-nitrophenyloxy)propyl]piperazin-1-yl}-2,4(1H,3H)-pyrimidinedione hydrochloride]
activation at 1 µg/mL [1, 3]: 19% | activation at 3 µg/mL [1, 4]: 41% | activation at 10 µg/mL [1, 5]: 60% | change in vivo at 0.1 mg/kg [2]: 0% | change in vivo at 0.3 mg/kg [2]: 0% | change in vivo at 1 mg/kg [2]: 0% | change in vivo at 3 mg/kg [2]: 0%

COCCN(CCCc1ccc([N+](=O)[O-])cc1)CCNc1cc(=O)n(C)c(=O)n1C [Compound 171, 1,3-dimethyl-6-{2-[N-(2-methoxyethyl)-3-(4-nitrophenyl)propylamino]ethylamino}-2,4(1H,3H)-pyrimidinedione oxalate]
activation at 1 µg/mL [1, 3]: 19% | activation at 3 µg/mL [1, 4]: 23% | activation at 10 µg/mL [1, 5]: 38%

Cn1c(N2CCN(CCCOc3ccc([N+](=O)[O-])cc3C(=O)c3ccccc3O)CC2)cc(=O)n(C)c1=O [Compound 104, 1,3-dimethyl-6-{4-<3-[2-(2-hydroxybenzoyl)-4-nitrophenoxy]propyl>piperazin-1-yl}-2,4(1H,3H)-pyrimidinedione oxalate]
activation at 3 µg/mL [1, 4]: 16% | activation at 10 µg/mL [1, 5]: 25%

CCN(CCCNc1ccc([N+](=O)[O-])cc1)CCNc1cc(=O)n(C)c(=O)n1C [Compound 73, 1,3-dimethyl-6-{2-[N-ethyl-3-(4-nitroanilino)propylamino]ethylamino}-2,4(1H,3H)-pyrimidinedione hydrochloride]
activation at 1 µg/mL [1, 3]: 2% | activation at 3 µg/mL [1, 4]: 12% | activation at 10 µg/mL [1, 5]: 18%

Cn1c(N2CCN(CCCNc3ccc([N+](=O)[O-])cc3)CC2)cc(=O)n(C)c1=O [Compound 58]
activation at 1 µg/mL [1, 3]: 10% | activation at 3 µg/mL [1, 4]: 18% | activation at 10 µg/mL [1, 5]: 28%
